Test results: patent US9512111B2, “N-sulfonylated tetrahydroquinolines and related bicyclic compounds for inhibition of RORγ activity and the treatment of disease” (Lycera Corporation, priority 2010, dated 2016)

Legend:
RORγt = molecular target: T1, RORγt (Homo sapiens, UniProt P51449); experiment: RORγ Reporter Assay (GAL4-UAS luciferase reporter in HEK293 cells); assay type: cell-based; settings: benzoxazines, Table 9; HEK cells
T1 construct: The resulting GAL4-RORγt-LBD fusion construct was placed under the control of a constitutive cytomegalovirus (CMV) promoter; expressed in transfected cells; host or cells: HEK293
T1 sequence (P51449 269-508 limits assumed): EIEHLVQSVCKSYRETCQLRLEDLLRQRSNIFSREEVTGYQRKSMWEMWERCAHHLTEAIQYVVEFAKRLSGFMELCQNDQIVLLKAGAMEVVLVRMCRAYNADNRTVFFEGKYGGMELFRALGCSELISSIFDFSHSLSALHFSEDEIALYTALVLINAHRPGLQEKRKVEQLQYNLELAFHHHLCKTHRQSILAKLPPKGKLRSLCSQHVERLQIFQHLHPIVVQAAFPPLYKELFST
Protocol: Inhibition of RORγt in cells was determined using a GAL4-UAS reporter system in HEK293 cells employing a luciferase readout. The RORγt DNA binding domain (DBD) was replaced with the heterologous yeast GAL4 DBD using standard recombinant DNA methods. The resulting GAL4-RORγt-LBD fusion construct was placed under the control of a constitutive cytomegalovirus (CMV) promoter by cloning it into the CMV-driven mammalian expression vector pcDNA3.1+− (Promega Corporation, Madison, Wis.).
A transcriptional reporter expression construct was used to monitor GAL4-RORγ activity, which contained five copies of the GAL4 binding site enhancer (UAS) controlling expression of a firefly luciferase reporter. This construct, pGL4.31, is commercially available from Promega Corporation, Madison Wis. Both expression constructs were transfected in bulk into HEK-293 cells using standard lipid-based transfection techniques, which allowed the GAL4 RORγ-LBD fusion protein to drive expression of the luciferase reporter. Control transfections were performed with an empty pCDN3.1+ vector.
The next day, cells were plated into 384 well plates, test compound was added, and the plates were incubated overnight. […] Promega firefly assays kits were used to stabilize the luciferase signal, and the intensity of the luciferase signal was measured using an EnVision Multilabel Plate Reader (Perkin Elmer, Waltham, Mass.).
HEK 293 cells are transfected with GAL4-NR construct (CMV:NR-LBD in pcDNA3.1neo) and the pGL4.31 GAL4-luciferase reporter construct (Promega). For a background control, use empty pcDNA3.1neo and pGL4.31. Transfection protocol is for a single T75 flask performed with Minis Trans-It 293 reagent. A 60 μL aliquot of Trans-IT reagent at room temperature is added drop wise to 1.5 mL of Optimem (Invitrogen). The resulting solution is mixed by inversion and incubated for 5-20 minutes at room temperature. This reagent mixture is added to 10 μg of DNA (5 μg of each expression vector used at a concentration of 1 mg/mL). The solution is mixed by inversion and incubated at room temperature for 20 minutes.
While the Trans-IT reagent and DNA are incubating, harvest HEK-293 cells. Remove media from flasks via aspiration and add enough TrypLE Express (stable Trypsin-like reagent, Invitrogen) to cover the bottom of the flask. The mixture is incubated at room temperature until the cells are visibly loose in the flask (approximately 2-5 minutes). Add an equal volume of complete growth media, and then pipette to achieve a single cell suspension. Spin down 1×10^7 cells and re-suspend the cells in 10 mL of complete growth media (DMEM high glucose/10% dialyzed FBS/pen/strep; Invitrogen). The cells and transfection mixture are added to one T75 flask. The contents of the T75 flax are mixed and incubated overnight at 37° C. and 5% CO2.
After 16-24 hours, cells are harvested and plated for test compound screening. Cells may be harvested as described above. Next, cells are counted and an appropriate number of cells are spun down. Then, cells are aspirated and re-suspended in complete growth media at a concentration of 0.5×10^6 cells/mL to provide a cell suspension. Plate 20 μL of the cell suspension into a white, tissue-culture treated 384 well plate. (10,000 cells/well).
A 10 mM stock solution of test compound in dimethylsulfoxide (DMSO) was diluted to 500× the final test concentration in DMSO, then diluted to 5× the final test concentration with complete growth medium to provide the Test Compound Solution. The concentration of DMSO in the Test Compound Solution was […]. A 5 μL aliquot of Test Compound Solution was added to each test well in the 384 well plate previously plated with the cell suspension. Next, plates are spun briefly and incubated overnight at 37° C. and 5% CO2.
After 16-24 hours, the luciferase assay is performed. Plates and luciferase reagent (e.g. One-Glo® or Dual Glo®; Promega, Madison, Wis.) are brought to room temperature.

RORγ-LBD = molecular target: T2, RORγ-LBD (Homo sapiens, UniProt P51449); experiment: RORγ-Ligand Binding Domain TR-FRET Assay; assay type: biochemical; settings: benzoxazines, Table 9
T2 construct: HIS-tagged RORγ-LBD was recombinantly expressed in SF9 cells; made in house; host or cells: SF9 cells (baculovirus); unpurified lysate
T2 sequence (P51449 269-508 limits assumed): T1 sequence (P51449 269-508 limits assumed)
How it was run: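 IC50 derived from the 665 nm/615 nm emission ratio after 4 h to overnight incubation. Mixture: Sf9 lysate with His-tagged LBD (~10 nM final, not purified), SRC1-2 LXXLL biotin peptide at 450 nM, 2 nM europium anti-His antibody, 60 nM APC-streptavidin; buffer 25 mM HEPES pH 7.0, 100 mM NaCl, 0.01% Tween, 0.1% BSA.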

| IC50 (RORγt) [µM] | IC50 (RORγ-LBD) [µM] | Structure (SMILES) |
| --- | --- | --- |
| < 15 | < 15 | O=C(Nc1ccc2c(c1)N(S(=O)(=O)c1ccc(F)cc1)C[C@H](CO)O2)c1c(F)cccc1F [VI-114] |
| < 15 | < 15 | COCC1CN(S(=O)(=O)c2ccc(F)cc2)c2cc(NC(=O)c3c(F)cccc3Cl)ccc2O1 (stereo not shown) [VI-119] |
| < 15 | < 15 | COCC1CN(S(=O)(=O)c2ccc(Cl)cc2)c2cc(NC(=O)c3c(F)cccc3F)ccc2O1 (stereo not shown) [VI-97] |
| < 15 | < 15 | O=C(Nc1cc2c(cc1F)O[C@@H](CO)CN2S(=O)(=O)c1ccc(F)cc1)c1c(Cl)cccc1Cl [VI-40] |
| < 15 | < 15 | O=C(Nc1ccc2c(c1)N(S(=O)(=O)c1ccc(F)cc1)C[C@@H](CO)O2)c1c(Cl)cccc1C(F)(F)F [VI-122] |
| < 15 | < 15 | COc1ccc(S(=O)(=O)N2C[C@H](CO)Oc3ccc(NC(=O)c4c(F)cccc4Cl)cc32)cn1 [VI-28] |
| < 15 | < 15 | O=C(Nc1ccc2c(c1)N(S(=O)(=O)c1ccc(F)c(F)c1)C[C@@H](CO)O2)c1c(F)cccc1C(F)(F)F [VI-72] |
| < 15 | < 15 | O=C(Nc1ccc2c(c1)N(S(=O)(=O)c1ccc(F)cc1)C[C@@H](CO)O2)c1c(Cl)cccc1Cl [VI-106] |
| < 15 | < 15 | COCC1CN(S(=O)(=O)c2ccc(F)cc2)c2cc(NC(=O)c3c(Cl)cccc3C(F)(F)F)ccc2O1 (stereo not shown) [VI-104] |
| < 15 | < 15 | COCC1CN(S(=O)(=O)c2cccc(C#N)c2)c2cc(NC(=O)c3c(F)cccc3F)ccc2O1 (stereo not shown) [VI-103] |
| < 15 | < 15 | O=C(Nc1ccc2c(c1)N(S(=O)(=O)c1ccc(F)c(F)c1)C[C@@H](CO)O2)c1c(F)cccc1F [VI-76] |
| < 15 | < 15 | O=C(Nc1ccc2c(c1)N(S(=O)(=O)c1ccc(F)cc1)C[C@H](CO)O2)c1c(F)cccc1C(F)(F)F [VI-82] |
| < 15 | < 15 | CC1(C)CN(S(=O)(=O)c2ccc(F)cc2)c2cc(NC(=O)c3c(F)cccc3Cl)ccc2O1 [Compound 16, 2-Chloro-6-fluoro-N-(4-((4-fluorophenyl)sulfonyl)-2,2-dimethyl-3,4-dihydro-2H-benzo[b][1,4]oxazin-6-yl)benzamide] |
| < 15 | < 15 | Cc1cccc(Cl)c1C(=O)Nc1ccc2c(c1)N(S(=O)(=O)c1cccc(C#N)c1)C[C@H](CO)O2 [VI-43] |
| < 15 | < 15 | CCN(CC)CC1CN(S(=O)(=O)c2ccc(F)cc2)c2cc(NC(=O)c3c(F)cccc3Cl)ccc2O1 (stereo not shown) [VI-38] |
| < 15 | < 15 | CCOCC1CN(S(=O)(=O)c2ccc(Cl)cc2)c2cc(NC(=O)c3c(F)cccc3F)ccc2O1 (stereo not shown) [VI-94] |
| < 15 | < 15 | COCC1CN(S(=O)(=O)c2ccc(F)cc2)c2cc(NC(=O)c3c(F)cccc3Cl)c(F)cc2O1 (stereo not shown) [Compound 12, 2-Chloro-6-fluoro-N-[7-fluoro-4-(4-fluorobenzenesulfonyl)-2-methoxymethyl-3,4-dihydro-2H-benzo[1,4]oxazin-6-yl]benzamide] |
| < 15 | < 15 | O=C(Nc1ccc2c(c1)N(S(=O)(=O)c1ccc(F)cc1)CC(CC(F)(F)F)O2)c1c(Cl)cccc1Cl (stereo not shown) [VI-13] |
| < 15 | < 15 | COc1ccc(S(=O)(=O)N2C[C@H](CO)Oc3cc(F)c(NC(=O)c4c(F)cccc4Cl)cc32)cn1 [VI-46] |

| IC50 (RORγt) [µM] | IC50 (RORγ-LBD) [µM] | Structure (SMILES) |
| --- | --- | --- |
| < 15 | < 15 | CC(C)NCC1CN(S(=O)(=O)c2ccc(F)cc2)c2cc(NC(=O)c3c(F)cccc3Cl)ccc2O1 (stereo not shown) [VI-35] |
| < 15 | < 15 | Cc1nn(C(F)F)cc1S(=O)(=O)N1C[C@H](CO)Oc2ccc(NC(=O)c3c(F)cccc3Cl)cc21 [VI-30] |
| < 15 | < 15 | COc1ccc(S(=O)(=O)N2C[C@H](CO)Oc3ccc(NC(=O)c4c(C)cccc4Cl)cc32)cn1 [VI-27] |
| < 15 | < 15 | COCC1CN(S(=O)(=O)c2ccc(Cl)cc2)c2cc(NC(=O)c3c(Cl)cccc3C(F)(F)F)ccc2O1 (stereo not shown) [VI-91] |
| < 15 | < 15 | O=C(Nc1cc2c(cc1F)O[C@@H](CO)CN2S(=O)(=O)c1ccc(F)cc1)c1c(F)cccc1Cl [VI-47] |
| < 15 | < 15 | COCC1CN(S(=O)(=O)c2ccc(F)c(F)c2)c2cc(NC(=O)c3c(F)cccc3C(F)(F)F)ccc2O1 (stereo not shown) [VI-79] |
| < 15 | < 15 | CCOCC1CN(S(=O)(=O)c2ccc(F)cc2)c2cc(NC(=O)c3c(F)cccc3Cl)ccc2O1 (stereo not shown) [VI-118] |
| < 15 | < 15 | COCC1CN(S(=O)(=O)c2cccc(C#N)c2)c2cc(NC(=O)c3c(F)cccc3Cl)ccc2O1 (stereo not shown) [VI-101] |
| < 15 | < 15 | CC(C)(C)CNCC1CN(S(=O)(=O)c2ccc(F)cc2)c2cc(NC(=O)c3c(F)cccc3Cl)ccc2O1 (stereo not shown) [VI-36] |
| < 15 | < 15 | N#Cc1cccc(S(=O)(=O)N2C[C@H](CO)Oc3ccc(NC(=O)c4c(Cl)cccc4Cl)cc32)c1 [VI-63] |
| < 15 | < 15 | Cc1nn(C(F)F)cc1S(=O)(=O)N1C[C@H](C)Oc2ccc(NC(=O)c3c(F)cccc3Cl)cc21 [VI-12] |
| < 15 | < 15 | N#Cc1cccc(S(=O)(=O)N2C[C@H](CN3CCCC3)Oc3ccc(NC(=O)c4c(F)cccc4Cl)cc32)c1 [Compound 21, (S)-2-Chloro-N-(4-((3-cyanophenyl)sulfonyl)-2-(pyrrolidin-1-ylmethyl)-3,4-dihydro-2H-benzo[b][1,4]oxazin-6-yl)-6-fluorobenzamide] |
| < 15 | < 15 | CCOCC1CN(S(=O)(=O)c2cccc(C#N)c2)c2cc(NC(=O)c3c(F)cccc3F)ccc2O1 (stereo not shown) [VI-102] |
| < 15 | < 15 | O=C(Nc1ccc2c(c1)N(S(=O)(=O)c1ccc(Cl)cc1)C[C@H](CO)O2)c1c(F)cccc1F [VI-87] |
| < 15 | < 15 | CCOCC1CN(S(=O)(=O)c2ccc(Cl)cc2)c2cc(NC(=O)c3c(F)cccc3Cl)ccc2O1 (stereo not shown) [VI-93] |
| < 15 | < 15 | COCC1CN(S(=O)(=O)c2ccc(F)cc2)c2cc(NC(=O)c3c(Cl)cccc3Cl)ccc2O1 (stereo not shown) [VI-105] |
| < 15 | < 15 | Cc1nn(C(F)F)cc1S(=O)(=O)N1C[C@H](C)Oc2ccc(NC(=O)c3c(Cl)cccc3C(F)(F)F)cc21 [VI-11] |
| < 15 | < 15 | Cc1nn(C(F)F)cc1S(=O)(=O)N1C[C@H](C)Oc2ccc(NC(=O)c3c(F)cccc3F)cc21 [VI-8] |
| < 15 | < 15 | COc1ccc(S(=O)(=O)N2C[C@H](CO)Oc3ccc(NC(=O)c4c(F)cccc4C(F)(F)F)cc32)cn1 [VI-25] |
